Measurements as given in patent publication US6900219B2, “ABCA-1 elevating compounds” (CV Therapeutics, Inc., priority 2002, dated 2005).

Tested on: ABCA-1 gene
Experiment: compounds tested and found to elevate cellular expression of the ABCA-1 gene (Examples 1-6; test not named)
Format: cell-based
Protocol: Activity testing is conducted as described in those patents and patent applications referenced above, and in the Examples below, and by methods apparent to one skilled in the art.

| Structure (SMILES) | cellular expression of the ABCA-1 gene |
| --- | --- |
| CC(=O)Nc1ccc(N=Nc2ccccc2)cc1 [N-[4-(phenyldiazenyl)phenyl]acetamide] | elevate cellular expression of the ABCA-1 gene |
| O=C(Nc1ncc(-c2ccccc2Cl)s1)c1ccco1 [N-[5-(2-chlorophenyl)(1,3-thiazol-2-yl)]-2-furylcarboxamide] | elevate cellular expression of the ABCA-1 gene |
| O=C(Nc1ncc(-c2ccccc2Cl)s1)C1CC1 [N-[5-(2-chlorophenyl)(1,3-thiazol-2-yl)]cyclopropylcarboxamide] | elevate cellular expression of the ABCA-1 gene |
| O=C(Nc1ncc(-c2ccc(F)cc2)s1)c1ccco1 [N-[5-(4-fluorophenyl)(1,3-thiazol-2-yl)]-2-furylcarboxamide] | elevate cellular expression of the ABCA-1 gene |
| O=C(Nc1ncc(-c2ccc(F)cc2)s1)c1cccs1 [N-[5-(4-fluorophenyl)(1,3-thiazol-2-yl)]-2-thienylcarboxamide] | elevate cellular expression of the ABCA-1 gene |
| CC(C)(C)c1cc(NC(=O)C(C)(C)S(=O)(=O)c2ccc(C(F)(F)F)cc2)no1 [N-[5-(tert-butyl)isoxazol-3-yl]-2-methyl-2-{[4-(trifluoromethyl)phenyl]sulfonyl}-propanamide] | elevate cellular expression of the ABCA-1 gene |
| CS(=O)(=O)c1ccc2nc(NC(=O)c3cccs3)sc2c1 [N-[6-(methylsulfonyl)benzothiazol-2-yl]-2-thienylcarboxamide] | elevate cellular expression of the ABCA-1 gene |
| CCc1c(C(=O)NC23CC4CC(CC(C4)C2)C3)cnn1-c1nc(-c2ccc(C)cc2)cs1 [N-adamantanyl {5-ethyl-1-[4-(4-methylphenyl)(1,3-thiazol-2-yl)]pyrazol-4-yl}carboxamide] | elevate cellular expression of the ABCA-1 gene |
| O=C(Nc1nc2ccccc2s1)c1sc2ccccc2c1Cl [N-benzothiazol-2-yl(3-chlorobenzo[b]thiophen-2-yl)carboxamide] | elevate cellular expression of the ABCA-1 gene |
| N#Cc1cccc(C(=O)Nc2nc3ccccc3s2)c1 [N-benzothiazol-2-yl(3-cyanophenyl)carboxamide] | elevate cellular expression of the ABCA-1 gene |
| O=C(Nc1nc2ccccc2s1)c1cccc(F)c1 [N-benzothiazol-2-yl(3-fluorophenyl)carboxamide] | elevate cellular expression of the ABCA-1 gene |
| N#Cc1ccc(C(=O)Nc2nc3ccccc3s2)cc1 [N-benzothiazol-2-yl(4-cyanophenyl)carboxamide] | elevate cellular expression of the ABCA-1 gene |
| CCCCNC(=O)Nc1nc2ccccc2s1 [N-benzothiazol-2-yl(butylamino)carboxamide] | elevate cellular expression of the ABCA-1 gene |
| CCCNC(=O)Nc1nc2ccccc2s1 [N-benzothiazol-2-yl(propylamino)carboxamide] | elevate cellular expression of the ABCA-1 gene |
| CC(C)(C)NC(=O)Nc1nc2ccccc2s1 [N-benzothiazol-2-yl(tert-butylamino)carboxamide] | elevate cellular expression of the ABCA-1 gene |
| O=C(Cc1cccs1)Nc1nc2ccccc2s1 [N-benzothiazol-2-yl-2-(2-thienyl)acetamide] | elevate cellular expression of the ABCA-1 gene |
| N#Cc1c(C(F)(F)F)cc(-c2cccs2)nc1SCC(=O)Nc1nc2ccccc2s1 [N-benzothiazol-2-yl-2-[3-cyano-6-(2-thienyl)-4-(trifluoromethyl)(2-pyridylthio)]acetamide] | elevate cellular expression of the ABCA-1 gene |
| O=C(Nc1nc2ccccc2s1)c1ccco1 [N-benzothiazol-2-yl-2-furylcarboxamide] | elevate cellular expression of the ABCA-1 gene |
| O=C(Nc1nc2ccccc2s1)c1ccccn1 [N-benzothiazol-2-yl-2-pyridylcarboxamide] | elevate cellular expression of the ABCA-1 gene |
| O=C(Nc1nc2ccccc2s1)c1cccs1 [N-benzothiazol-2-yl-2-thienylcarboxamide] | elevate cellular expression of the ABCA-1 gene |
| O=C(CCC1CCCC1)Nc1nc2ccccc2s1 [N-benzothiazol-2-yl-3-cyclopentylpropanamide] | elevate cellular expression of the ABCA-1 gene |
| O=C(Nc1nc2ccccc2s1)c1ccncc1 [N-benzothiazol-2-yl-4-pyridylcarboxamide] | elevate cellular expression of the ABCA-1 gene |

| Structure (SMILES) | cellular expression of the ABCA-1 gene |
| --- | --- |
| O=C(Nc1nc2ccccc2s1)c1cnn(-c2ccc(Cl)cc2)c1C(F)(F)F [N-benzothiazol-2-yl[1-(4-chlorophenyl)-5-(trifluoromethyl)pyrazol-4-yl]carboxamide] | elevate cellular expression of the ABCA-1 gene |
| CCCc1c(C(=O)Nc2nc3ccccc3s2)cnn1-c1ccc(Cl)cc1 [N-benzothiazol-2-yl[1-(4-chlorophenyl)-5-propylpyrazol-4-yl]carboxamide] | elevate cellular expression of the ABCA-1 gene |
| O=C(Nc1nc2ccccc2s1)c1cnn(Cc2ccccc2)c1 [N-benzothiazol-2-yl[1-benzylpyrazol-4-yl]carboxamide] | elevate cellular expression of the ABCA-1 gene |
| O=C(Nc1nc2ccccc2s1)c1cnn(-c2ccccc2)c1C(F)(F)F [N-benzothiazol-2-yl[1-phenyl-5-(trifluoromethyl)pyrazol-4-yl]carboxamide] | elevate cellular expression of the ABCA-1 gene |
| O=C(Nc1nc2ccccc2s1)c1cc(C(F)(F)F)cc(C(F)(F)F)c1 [N-benzothiazol-2-yl[3,5-bis(trifluoromethyl)phenyl]carboxamide] | elevate cellular expression of the ABCA-1 gene |
| Cc1onc(-c2ccccc2Cl)c1C(=O)Nc1nc2ccccc2s1 [N-benzothiazol-2-yl[3-(2-chlorophenyl)-5-methylisoxazol-4-yl]carboxamide] | elevate cellular expression of the ABCA-1 gene |
| Cc1onc(-c2c(F)cccc2Cl)c1C(=O)Nc1nc2ccccc2s1 [N-benzothiazol-2-yl[3-(6-chloro-2-fluorophenyl)-5-methylisoxazol-4-yl]carboxamide] | elevate cellular expression of the ABCA-1 gene |
| O=C(Nc1cccc(Cl)c1)Nc1nc2ccccc2s1 [N-benzothiazol-2-yl[(3-chlorophenyl)amino]carboxamide] | elevate cellular expression of the ABCA-1 gene |
| O=C(Nc1nc2ccccc2s1)C1CCC1 [N-benzothiazol-2-ylcyclobutylcarboxamide] | elevate cellular expression of the ABCA-1 gene |
| O=C(Nc1nc2ccccc2s1)c1ccno1 [N-benzothiazol-2-ylisoxazol-5-ylcarboxamide] | elevate cellular expression of the ABCA-1 gene |
| CCCCC(=O)Nc1nc2ccccc2s1 [N-benzothiazol-2-ylpentanamide] | elevate cellular expression of the ABCA-1 gene |
| Cc1ccc(-c2csc(-n3ncc(C(=O)NC4CC5CCC4C5)c3C)n2)cc1 (stereo not shown) [N-bicyclo[2.2.1]hept-2-yl {5-methyl-1-[4-(4-methylphenyl)(1,3-thiazol-2-yl)]pyrazol-4-yl}carboxamide] | elevate cellular expression of the ABCA-1 gene |
| CCCCN(Cc1ccc(OCc2ccccc2)cc1)C(=O)Nc1ccc(SC)cc1 [N-butyl[(4-thiomethylphenyl)amino]-N-{[4-(phenylmethoxy)phenyl]methyl}-carboxamide] | elevate cellular expression of the ABCA-1 gene |
| Cc1c(C(=O)NC2CC2)cnn1-c1nc(-c2ccccc2)cs1 [N-cyclopropyl[5-methyl-1-(4-phenyl(1,3-thiazol-2-yl))pyrazol-4-yl]carboxamide] | elevate cellular expression of the ABCA-1 gene |
| O=C(Nc1ccccc1)Nc1ccc2c(c1)CCC2 [N-indan-5-yl(phenylamino)carboxamide] | elevate cellular expression of the ABCA-1 gene |
| O=C(Nc1ccc2c(c1)CCC2)c1cccs1 [N-indan-5-yl-2-thienylcarboxamide] | elevate cellular expression of the ABCA-1 gene |
| CNC(=O)C(Sc1nnc(NC(=O)c2ccc(C)cc2)s1)C(C)=O (stereo not shown) [N-methyl-2-{5-[(4-methylphenyl)carbonylamino](1,3,4-thiadiazol-2-ylthio)}-3-oxobutanamide] | elevate cellular expression of the ABCA-1 gene |
| CCC(c1nc2ccccc2c(=O)n1-c1ccc(C)c(C)c1)N(CCOC)C(=O)Nc1ccc(Cl)cc1 (stereo not shown) [N-{[3-(3,4-dimethylphenyl)-4-oxo(3-hydroquinazolin-2-yl)]propyl}[(4-chlorophenyl)amino]-N-(2-methoxyethyl)carboxamide] | elevate cellular expression of the ABCA-1 gene |
| CCC(c1nc2ccccc2c(=O)n1-c1ccc(C)c(C)c1)N(Cc1ccccc1)C(=O)Nc1ccc(OC)cc1 (stereo not shown) [N-{[3-(3,4-dimethylphenyl)-4-oxo(3-hydroquinazolin-2-yl)]propyl}[(4-methoxyphenyl)amino]-N-benzylcarboxamide] | elevate cellular expression of the ABCA-1 gene |
| CCNC(=O)N(Cc1ccco1)C(C)c1nc2ccccc2c(=O)n1-c1ccc(Br)cc1 (stereo not shown) [N-{[3-(4-bromophenyl)-4-oxo(3-hydroquinazolin-2-yl)]ethyl}(ethylamino)-N-(2-furylmethyl)carboxamide] | elevate cellular expression of the ABCA-1 gene |
| CCCCN(C(=O)Nc1ccc(OC)cc1)C(C)c1nc2ccccc2c(=O)n1-c1ccc(Br)cc1 (stereo not shown) [N-{[3-(4-bromophenyl)-4-oxo(3-hydroquinazolin-2-yl)]ethyl}-N-butyl[(4-methoxyphenyl)amino]carboxamide] | elevate cellular expression of the ABCA-1 gene |
